Data as given in patent publication US20230081426A1, “COMPOUNDS AND METHODS FOR KRAS MODULATION AND INDICATIONS THEREFOR” (Plexxikon Inc., priority 2020, published 2023).
Where two headings read alike, the source gives them in different places.

Target: T1, G12D-mutant human KRAS (amino acid residues 1-188) (Homo sapiens, UniProt P01116, G12D)
T1 construct: G12D or G12C-mutant human KRAS (amino acid residues 1-188) with FLAG tag; made in house; host or cells: E. coli
Experiment: KRAS Binding Disruption Assay (AlphaScreen; biotinylated KRpep-2d analogue or RAF1-RBD), G12D
Settings: geometric mean, read-out: KRAS GMean IC50 (uM) MUTATION: G12D
Procedure: Compound binding disrupts the interaction of KRpep-2d or RAF1-RBD with KRAS, leading to a decrease in Alpha signal.
All assay components were prepared in 20 mM HEPES (pH 7.5), 100 mM NaCl, 5 mM MgCl2, 0.01% Tween-20, and 0.01% BSA. Biotinylated analogues of KRpep-2d were custom synthesized. The binding disruption assays were performed using 5-20 nM of mutant KRAS and 5-20 nM of either biotinylated KRpep-2d analogue or RAF1-RBD. 19 μL of KRAS protein and 4 μL of biotinylated KRpep-2d or RAF1-RBD were added to the wells of a 384-well plate containing 1 μL of various concentrations of test compound or DMSO vehicle. 16 wells containing KRAS, biotinylated KRpep-2d or RAF1-RBD, and 5% DMSO served as high controls. 16 wells containing KRAS only and 5% DMSO served as low controls. Binding reactions were incubated for 1 hour at 25° C., then Anti-Flag Acceptor and Streptavidin Donor Alpha beads were added at a final concentration of 10 μg/mL for an additional hour at room temperature. Alpha signal was read out on a Perkin Elmer Envision HTS instrument. The percentage inhibition at individual compound concentrations relative to high and low controls was calculated. The data were analyzed by using nonlinear regression to generate IC50 values.

T1 sequence (P01116 1-188 isoform P01116-2 G12D): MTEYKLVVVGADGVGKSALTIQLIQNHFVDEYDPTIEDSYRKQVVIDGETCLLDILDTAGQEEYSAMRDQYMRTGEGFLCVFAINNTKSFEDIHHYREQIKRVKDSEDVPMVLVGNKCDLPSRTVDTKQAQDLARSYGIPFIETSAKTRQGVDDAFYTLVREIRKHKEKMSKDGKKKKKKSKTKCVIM

| IC50 (KRAS G12D) | IC50 (Table 3, bridged vs non-bridged R1) | SMILES |
| --- | --- | --- |
| 10 to 100 µM |  | CNCCOc1nc(N2C[C@H]3CC[C@@H](C2)N3)c2ccc(-c3cc(O)cc4ccccc34)cc2n1 [P-0083, 4-(4-((1R,5S)-3,8-diazabicyclo[3.2.1]octan-3-yl)-2-(2-(methylamino)ethoxy)quinazolin-7-yl)naphthalen-2-ol] |
| 0.0001 to 10 µM |  | CO[C@@H]1CN(C)C[C@H]1Oc1nc(N2C[C@H]3CC[C@@H](C2)N3)c2cc(Cl)c(-c3cc(O)cc4ccccc34)c(F)c2n1 [P-0035, 4-(4-((1R,5S)-3,8-diazabicyclo[3.2.1]octan-3-yl)-6-chloro-8-fluoro-2-(((3R,4R)-4-methoxy-1-methylpyrrolidin-3-yl)oxy)quinazolin-7-yl)naphthalen-2-ol] |
| 0.0001 to 10 µM |  | Cc1ccc(N)cc1-c1c(F)cc2c(N3C[C@H]4CC[C@@H](C3)N4)nc(OCC34CCCN3CCC4)nc2c1F [P-0596, 3-(4-((1R,5S)-3,8-diazabicyclo[3.2.1]octan-3-yl)-6,8-difluoro-2-((tetrahydro-1H-pyrrolizin-7a(5H)-yl)methoxy)quinazolin-7-yl)-4-methylaniline] |
| 0.0001 to 10 µM |  | C=Cc1cccc2cccc(-c3ccc4c(N5C[C@H]6CC[C@@H](C5)N6)nc(OCC56CCCN5CCC6)nc4c3F)c12 [P-0538, 4-((1R,5S)-3,8-diazabicyclo[3.2.1]octan-3-yl)-8-fluoro-2-((tetrahydro-1H-pyrrolizin-7a(5H)-yl)methoxy)-7-(8-vinylnaphthalen-1-yl)quinazoline] |
| 0.0001 to 10 µM |  | OCC(CO)COc1nc(N2C[C@H]3CC[C@@H](C2)N3)c2ccc(-c3cc(O)cc4ccccc34)c(F)c2n1 [P-0524, 2-(((4-((1R,5S)-3,8-diazabicyclo[3.2.1]octan-3-yl)-8-fluoro-7-(3-hydroxynaphthalen-1-yl)quinazolin-2-yl)oxy)methyl)propane-1,3-diol] |
| 0.0001 to 10 µM |  | Oc1cc(-c2ccc3c(N4C[C@H]5CC[C@@H](C4)N5)nc(NCC4CCCC4O)nc3c2F)c2ccccc2c1 (stereo partly drawn) [P-0556, 4-(4-((1R,5S)-3,8-diazabicyclo[3.2.1]octan-3-yl)-8-fluoro-2-(((2-hydroxycyclopentyl)methyl)amino)quinazolin-7-yl)naphthalen-2-ol] |
| 0.0001 to 10 µM |  | NC1(CCO)CN(c2nc(N3C[C@H]4CC[C@@H](C3)N4)c3ccc(-c4cc(O)cc5ccccc45)c(F)c3n2)C1 [P-0546, 4-(2-(3-amino-3-(2-hydroxyethyl)azetidin-1-yl)-4-((1R,5S)-3,8-diazabicyclo[3.2.1]octan-3-yl)-8-fluoroquinazolin-7-yl)naphthalen-2-ol] |
| 0.0001 to 10 µM |  | CN1CCC[C@H]1COc1nc(N2C[C@H]3C[C@@H]2CN3)c2cc(Cl)c(-c3cc(O)cc4ccccc34)c(F)c2n1 [P-0041, 4-(4-((1R,4R)-2,5-diazabicyclo[2.2.1]heptan-2-yl)-6-chloro-8-fluoro-2-(((S)-1-methylpyrrolidin-2-yl)methoxy)quinazolin-7-yl)naphthalen-2-ol] |
| 0.0001 to 10 µM |  | Oc1cc(-c2ccc3c(N4C[C@H]5CC[C@@H](C4)N5)nc(N4CCC5(CCNC5)C4)nc3c2F)c2ccccc2c1 (stereo partly drawn) [P-0526, 4-(4-((1R,5S)-3,8-diazabicyclo[3.2.1]octan-3-yl)-8-fluoro-2-(2,7-diazaspiro[4.4]nonan-2-yl)quinazolin-7-yl)naphthalen-2-ol] |
| 0.0001 to 10 µM |  | NCCN1[C@@H]2CC[C@H]1CN(c1nc(OCC34CCCN3CCC4)nc3c(F)c(-c4cc(O)cc5ccccc45)ccc13)C2 [P-0545, 4-(4-((1R,5S)-8-(2-aminoethyl)-3,8-diazabicyclo[3.2.1]octan-3-yl)-8-fluoro-2-((tetrahydro-1H-pyrrolizin-7a(5H)-yl)methoxy)quinazolin-7-yl)naphthalen-2-ol] |
| 0.0001 to 10 µM |  | C#Cc1cccc2cccc(-c3ccc4c(N5C[C@H]6CC[C@@H](C5)N6)nc(OCC56CCCN5CCC6)nc4c3F)c12 [P-0521, 4-((1R,5S)-3,8-diazabicyclo[3.2.1]octan-3-yl)-7-(8-ethynylnaphthalen-1-yl)-8-fluoro-2-((tetrahydro-1H-pyrrolizin-7a(5H)-yl)methoxy)quinazoline] |
| 0.0001 to 10 µM |  | Cc1c(-c2cc(O)cc3ccccc23)ccc2c(N3C[C@H]4CC[C@@H](C3)N4)nc(OC[C@@H]3CCCN3C)nc12 [P-0014, 4-(4-((1R,5S)-3,8-diazabicyclo[3.2.1]octan-3-yl)-8-methyl-2-(((S)-1-methylpyrrolidin-2-yl)methoxy)quinazolin-7-yl)naphthalen-2-ol] |
| 0.0001 to 10 µM |  | Oc1cc(-c2ccc3c(N4C[C@H]5CC[C@@H](C4)N5)nc(N4CC(N5CCC(O)C5)C4)nc3c2F)c2ccccc2c1 (stereo partly drawn) [P-0602, 1-(1-(4-((1R,5S)-3,8-diazabicyclo[3.2.1]octan-3-yl)-8-fluoro-7-(3-hydroxynaphthalen-1-yl)quinazolin-2-yl)azetidin-3-yl)pyrrolidin-3-ol] |
| 0.0001 to 10 µM |  | CN1CCC[C@H]1COc1nc(N2C[C@H]3CC[C@@H](C2)N3)c2cc(Cl)c(-c3cc(O)cc4ccccc34)nc2n1 [P-0045, 4-(4-((1R,5S)-3,8-diazabicyclo[3.2.1]octan-3-yl)-6-chloro-2-(((S)-1-methylpyrrolidin-2-yl)methoxy)pyrido[2,3-d]pyrimidin-7-yl)naphthalen-2-ol] |
| 10 to 100 µM |  | CN1CCC[C@H]1COc1nc(N2C[C@H]3CC[C@@H](C2)N3C(=O)c2n[nH]c(=O)[nH]2)c2ccc(-c3cc(O)cc4ccccc34)cc2n1 [P-0113, 5-((1R,5S)-3-(7-(3-hydroxynaphthalen-1-yl)-2-(((S)-1-methylpyrrolidin-2-yl)methoxy)quinazolin-4-yl)-3,8-diazabicyclo[3.2.1]octane-8-carbonyl)-2,4-dihydro-3H-1,2,4-triazol-3-one] |
| 0.0001 to 10 µM |  | COCCc1cccc2[nH]cc(-c3ccc4c(N5C[C@H]6CC[C@@H](C5)N6)nc(OCC56CCCN5CCC6)nc4c3F)c12 [P-0573, 4-((1R,5S)-3,8-diazabicyclo[3.2.1]octan-3-yl)-8-fluoro-7-(4-(2-methoxyethyl)-1H-indol-3-yl)-2-((tetrahydro-1H-pyrrolizin-7a(5H)-yl)methoxy)quinazoline] |
| 0.0001 to 10 µM |  | CC(C)(CNC(=O)OCc1ccccc1)COc1nc(N2C[C@H]3CC[C@@H](C2)N3)c2ccc(-c3cc(O)cc4ccccc34)c(F)c2n1 [P-0592, benzyl (3-((4-((1R,5S)-3,8-diazabicyclo[3.2.1]octan-3-yl)-8-fluoro-7-(3-hydroxynaphthalen-1-yl)quinazolin-2-yl)oxy)-2,2-dimethylpropyl)carbamate] |
| 0.0001 to 10 µM |  | O=C(CO)C1(O)CN(c2nc(N3C[C@H]4CC[C@@H](C3)N4)c3ccc(-c4cc(O)cc5ccccc45)c(F)c3n2)C1 [P-0507, 1-(1-(4-((1R,5S)-3,8-diazabicyclo[3.2.1]octan-3-yl)-8-fluoro-7-(3-hydroxynaphthalen-1-yl)quinazolin-2-yl)-3-hydroxyazetidin-3-yl)-2-hydroxyethan-1-one] |
|  | 1.11 µM | CN1CCC[C@H]1COc1nc(N2CCNCC2)c2cc(Cl)c(-c3cc(O)cc4ccccc34)c(F)c2n1 [Non-bridged version of P-0001, reference compound] |
| 0.0001 to 10 µM |  | CC(CO)(COc1nc(N2C[C@H]3CC[C@@H](C2)N3)c2ccc(-c3cc(O)cc4ccccc34)c(F)c2n1)c1ccccc1 (stereo partly drawn) [P-0516, 4-(4-((1R,5S)-3,8-diazabicyclo[3.2.1]octan-3-yl)-8-fluoro-2-(3-hydroxy-2-methyl-2-phenylpropoxy)quinazolin-7-yl)naphthalen-2-ol] |
| 0.0001 to 10 µM |  | CC(C)(C)OC(=O)NCCN1[C@@H]2CC[C@H]1CN(c1nc(OCC34CCCN3CCC4)nc3c(F)c(-c4cc(O)cc5ccccc45)ccc13)C2 [P-0551, tert-butyl (2-((1R,5S)-3-(8-fluoro-7-(3-hydroxynaphthalen-1-yl)-2-((tetrahydro-1H-pyrrolizin-7a(5H)-yl)methoxy)quinazolin-4-yl)-3,8-diazabicyclo[3.2.1]octan-8-yl)ethyl)carbamate] |
| 0.0001 to 10 µM |  | CN1CCC[C@H]1COc1nc(N2CC3COCC(C2)N3)c2cc(Cl)c(-c3cc(O)cc4ccccc34)c(F)c2n1 [P-0040, 4-(4-(3-oxa-7,9-diazabicyclo[3.3.1]nonan-7-yl)-6-chloro-8-fluoro-2-(((S)-1-methylpyrrolidin-2-yl)methoxy)quinazolin-7-yl)naphthalen-2-ol] |
| 0.0001 to 10 µM |  | CCN(CC)C1CCN(c2nc(N3C[C@H]4CC[C@@H](C3)N4)c3ccc(-c4cc(O)cc5ccccc45)c(F)c3n2)C1 (stereo partly drawn) [P-0530, 4-(4-((1R,5S)-3,8-diazabicyclo[3.2.1]octan-3-yl)-2-(3-(diethylamino)pyrrolidin-1-yl)-8-fluoroquinazolin-7-yl)naphthalen-2-ol] |

| SMILES | IC50 (KRAS G12D) | IC50 (Table 3, bridged vs non-bridged R1) |
| --- | --- | --- |
| CC(C)(C)C(CO)COc1nc(N2C[C@H]3CC[C@@H](C2)N3)c2ccc(-c3cc(O)cc4ccccc34)c(F)c2n1 (stereo partly drawn) [P-0585, 4-(4-((1R,5S)-3,8-diazabicyclo[3.2.1]octan-3-yl)-8-fluoro-2-(2-(hydroxymethyl)-3,3-dimethylbutoxy)quazolin-7-yl)naphthalen-2-ol] | 0.0001 to 10 µM |  |
| CC(C)C(CO)COc1nc(N2C[C@H]3CC[C@@H](C2)N3)c2ccc(-c3cc(O)cc4ccccc34)c(F)c2n1 (stereo partly drawn) [P-0586, 4-(4-((1R,5S)-3,8-diazabicyclo[3.2.1]octan-3-yl)-8-fluoro-2-(2-(hydroxymethyl)-3-methylbutoxy)quinazolin-7-yl)naphthalen-2-ol] | 0.0001 to 10 µM |  |
